Among the test systems are MDA-MB-435; T-47D breast; M14 melanoma; NCI-H23 lung; IGROV1 ovarian; HS 578T breast.
Assay in all cases: NCI anticancer screen, dose series, 48 h

Several values for one entry are separate records, joined by “and”; a condition that tells them apart may be missing. Equal values may be shown once.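 1) Cells in 96-well plates. 2) Compound, 48 h, 5 concentrations. 3) Linear interpolation between surrounding doses. 4) Unreached endpoint = highest concentration. At the GI50, growth is halved. TGI: concentration producing complete growth inhibition.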

With `COc1cc(Nc2ncc(F)c(Nc3ccc4c(n3)NC(=O)C(C)(C)O4)n2)cc(OC)c1OC`, the GI50 with MDA-MB-435 is over 10 µM; in the assay with M14 melanoma, over 100 µM; with NCI-H23 lung it was 6.29 µM; in the assay on IGROV1 ovarian, 0.43 µM; in the assay with HS 578T breast it was 0.218 µM and 0.787 µM. In addition, the TGI with MDA-MB-435 is over 10 µM; in the assay with T-47D breast it was over 100 µM; in the assay on M14 melanoma it was over 100 µM; with NCI-H23 lung, over 10 µM; with IGROV1 ovarian it was over 10 µM.
As for `COC1=CC23CCCN2CCc2cc4c(cc2C3C1O)OCO4` (stereo unspecified), the TGI with MDA-MB-435, with T-47D breast, in the assay on M14 melanoma, in the assay with NCI-H23 lung, with IGROV1 ovarian and in the assay on HS 578T breast was over 100 µM in each case.
For the compound `N#CC(C#N)N=Nc1ccc(Br)cc1`, the GI50 in the assay on MDA-MB-435 is 4.19 µM; with T-47D breast, 0.839 µM; in the assay with M14 melanoma, 3.33 µM; with NCI-H23 lung, 2.42 µM; with IGROV1 ovarian, 3.68 µM; in the assay with HS 578T breast, 13.4 µM. In addition, the TGI in the assay with MDA-MB-435 is 20 µM; with T-47D breast, 6.75 µM; in the assay with M14 melanoma, 16.8 µM; in the assay with NCI-H23 lung it was 26.7 µM; in the assay with IGROV1 ovarian, over 73.6 µM; with HS 578T breast, over 73.8 µM.
Turning to `Nc1ncnc2c1c(-c1cccc(OCc3ccccc3)c1)cn2C1CC(CN2CCC2)C1` (stereo unspecified), the GI50 in the assay with MDA-MB-435 was 1.21 µM and 1.49 µM; in the assay with T-47D breast, 2.84 µM and 2.79 µM; in the assay with M14 melanoma, 1.59 µM and 1.65 µM; in the assay with NCI-H23 lung it was 4.62 µM and 7.36 µM; in the assay with IGROV1 ovarian, 3.32 µM and 4.84 µM; with HS 578T breast, 2.97 µM and 1.57 µM. In addition, the TGI is 3.12 µM and 6.89 µM with MDA-MB-435; 12.1 µM and > 10 µM in the assay with T-47D breast; 3.28 µM and 3.55 µM in the assay with M14 melanoma; 21.1 µM and > 10 µM with NCI-H23 lung; 12.2 µM and > 10 µM in the assay on IGROV1 ovarian; 24.8 µM and 5.8 µM in the assay on HS 578T breast.
With `COC(=O)c1c(O)c([N+](=O)[O-])cc2c1c1c(n2Cc2ccccc2)C(=O)c2ccccc2C1=O`, the GI50 was 6.28 µM in the assay with MDA-MB-435; 11.8 µM in the assay with T-47D breast; 10.6 µM with M14 melanoma; 21.9 µM in the assay with NCI-H23 lung; 35.1 µM with IGROV1 ovarian; 29.9 µM in the assay with HS 578T breast. In addition, the TGI was 28 µM in the assay with MDA-MB-435; 45.8 µM in the assay with T-47D breast; 24.1 µM in the assay with M14 melanoma; 84.4 µM with NCI-H23 lung; over 100 µM in the assay with IGROV1 ovarian; 92.4 µM in the assay with HS 578T breast.
Take `CN1C(=O)[C@@H](NC(=O)[C@H](CCC(F)(F)F)[C@H](CCC(F)(F)F)C(N)=O)N=C(c2ccccc2)c2ccccc21`: the GI50 in the assay on MDA-MB-435 was 85.6 µM; in the assay on T-47D breast, 46.2 µM; in the assay on M14 melanoma, 50.9 µM; in the assay on NCI-H23 lung, over 100 µM; in the assay with IGROV1 ovarian, over 100 µM; in the assay on HS 578T breast it was over 100 µM. Also, the TGI with MDA-MB-435, in the assay with T-47D breast, in the assay on M14 melanoma, in the assay on NCI-H23 lung, in the assay with IGROV1 ovarian and in the assay with HS 578T breast was over 100 µM each time.
In the case of `C=C1c2[nH]c3ccccc3c2C2C(CC)C1CCN2C` (stereo unspecified), the TGI was over 100 µM in the assay with MDA-MB-435; over 100 µM in the assay with T-47D breast; 67.6 µM in the assay on M14 melanoma; over 100 µM in the assay with NCI-H23 lung; over 100 µM with IGROV1 ovarian; over 100 µM in the assay with HS 578T breast.
As to `COC1=CC(=O)C(OC)=C(OC)C1=O`, the GI50 in the assay with MDA-MB-435 was 3.16 µM; with T-47D breast, 10.3 µM; in the assay on M14 melanoma, 15.6 µM; in the assay with NCI-H23 lung, 14.9 µM; with IGROV1 ovarian, 19.7 µM; with HS 578T breast, 28 µM. The TGI in the assay with MDA-MB-435 was 11.1 µM; in the assay on T-47D breast, 32.2 µM; in the assay with M14 melanoma, 29.7 µM; in the assay with NCI-H23 lung, 30 µM; in the assay with IGROV1 ovarian, 37.6 µM; in the assay on HS 578T breast it was over 100 µM.
Regarding `CC(=O)O[C@@H]1[C@@H](O)C2=C3[C@]4(C)[C@@H]1C(C)(C)C(=O)C[C@@H]4[C@]3(O)[C@H](OC(C)=O)[C@@]1(C[C@@H]1C)C2=O`, the TGI with MDA-MB-435 was 37.8 µM; with T-47D breast it was 36 µM; with M14 melanoma, 91.9 µM; in the assay with NCI-H23 lung, over 100 µM; in the assay with IGROV1 ovarian it was 30.9 µM; in the assay with HS 578T breast, over 100 µM.
For the compound `CCN(CC)c1ccc2c(c1)Oc1nc(N)c(C#N)c(N)c1C2Sc1ccc(OC)cc1` (stereo unspecified), the GI50 with MDA-MB-435 was 1.79 µM; in the assay with T-47D breast it was 1.91 µM; in the assay on M14 melanoma, 1.77 µM; in the assay on NCI-H23 lung it was 1.52 µM; in the assay on IGROV1 ovarian it was 1.9 µM; in the assay on HS 578T breast, 2.17 µM. The TGI amounted to 3.4 µM in the assay on MDA-MB-435; 4.89 µM in the assay on T-47D breast; 3.33 µM in the assay with M14 melanoma; 3.02 µM in the assay on NCI-H23 lung; 3.9 µM with IGROV1 ovarian; 6.11 µM with HS 578T breast.
As for `CCN1C2=NCCN2S(=O)(=O)c2ccccc21`, the TGI in the assay on MDA-MB-435, in the assay with T-47D breast, in the assay on M14 melanoma, in the assay with NCI-H23 lung, in the assay on IGROV1 ovarian and in the assay on HS 578T breast was over 100 µM each time.
With `O=C(O)CCC/C=C\C[C@H]1C=CC(=O)/C1=C/C[C@@H](O)CCc1cccc(C(F)(F)F)c1`, the GI50 is 1.82 µM in the assay with MDA-MB-435; 2.82 µM in the assay on T-47D breast; 2 µM in the assay on M14 melanoma; 2.25 µM with NCI-H23 lung; 3.41 µM in the assay with IGROV1 ovarian; 13.7 µM with HS 578T breast. In addition, the TGI with MDA-MB-435 came to 4.94 µM; in the assay on T-47D breast, 17.5 µM; in the assay on M14 melanoma it was 6.76 µM; in the assay on NCI-H23 lung, 6.37 µM; in the assay with IGROV1 ovarian, 13.6 µM; in the assay on HS 578T breast it was 71.2 µM.
As for `O=C(/C=N/O)Nc1cc(Cl)c(Cl)cc1Cl`, the TGI is 67 µM in the assay on MDA-MB-435; 95.5 µM in the assay on T-47D breast; over 100 µM with M14 melanoma; 86.6 µM with NCI-H23 lung; over 100 µM in the assay with IGROV1 ovarian; 85.5 µM in the assay with HS 578T breast.
On to `O=C(O)c1cc2ccccc2oc1=O`, for which the TGI in the assay on MDA-MB-435, in the assay with T-47D breast, in the assay with M14 melanoma, in the assay with NCI-H23 lung, in the assay on IGROV1 ovarian and in the assay on HS 578T breast was over 100 µM throughout. In addition, in the assay on T-47D breast, the GI50 was > 100 µM and 33.6 µM.
